We go through twelve compounds from patent US8906904B2, “Alkoxy pyrazoles as soluble guanylate cyclase activators” (Boehringer Ingelheim International GmbH, priority 2012, dated 2014).

Broadly, the EC50 is the concentration that produces a half-maximal response. The low end stands for an effect from little substance, the high end for a need for much substance. In general, solubility refers to how much of the substance goes into solution per volume.

The structures appear in SMILES notation. Converted amounts (≈) assume the structure as drawn.

Data set [1] has as its target T1, human soluble guanylate cyclase alpha 1 and beta 1 subunits (sGC) (Homo sapiens, UniProt Q02108+Q02153).
T1 construct: expressed in transfected cells; host or cells: Chinese hamster ovary (CHO) cells, stably transfected
T1 sequence (Q02108 1-690): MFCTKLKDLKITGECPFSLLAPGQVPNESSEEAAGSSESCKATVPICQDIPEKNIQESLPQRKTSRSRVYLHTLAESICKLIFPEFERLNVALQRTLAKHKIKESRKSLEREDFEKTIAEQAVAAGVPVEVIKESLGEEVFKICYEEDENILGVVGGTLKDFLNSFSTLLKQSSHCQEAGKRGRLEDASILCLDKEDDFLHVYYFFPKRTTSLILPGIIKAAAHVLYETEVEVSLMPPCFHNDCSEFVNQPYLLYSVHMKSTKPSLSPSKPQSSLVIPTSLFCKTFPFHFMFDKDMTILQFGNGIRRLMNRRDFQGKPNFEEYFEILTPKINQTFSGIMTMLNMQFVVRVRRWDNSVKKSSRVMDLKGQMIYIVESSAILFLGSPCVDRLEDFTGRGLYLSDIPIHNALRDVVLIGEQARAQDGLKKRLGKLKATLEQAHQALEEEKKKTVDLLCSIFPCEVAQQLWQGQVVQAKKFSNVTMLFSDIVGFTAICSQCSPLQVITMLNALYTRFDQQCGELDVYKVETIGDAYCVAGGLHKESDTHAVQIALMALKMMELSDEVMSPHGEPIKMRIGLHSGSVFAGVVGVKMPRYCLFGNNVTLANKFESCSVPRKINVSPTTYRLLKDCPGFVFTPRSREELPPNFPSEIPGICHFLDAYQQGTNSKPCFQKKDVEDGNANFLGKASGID
T1 sequence (Q02153 1-619): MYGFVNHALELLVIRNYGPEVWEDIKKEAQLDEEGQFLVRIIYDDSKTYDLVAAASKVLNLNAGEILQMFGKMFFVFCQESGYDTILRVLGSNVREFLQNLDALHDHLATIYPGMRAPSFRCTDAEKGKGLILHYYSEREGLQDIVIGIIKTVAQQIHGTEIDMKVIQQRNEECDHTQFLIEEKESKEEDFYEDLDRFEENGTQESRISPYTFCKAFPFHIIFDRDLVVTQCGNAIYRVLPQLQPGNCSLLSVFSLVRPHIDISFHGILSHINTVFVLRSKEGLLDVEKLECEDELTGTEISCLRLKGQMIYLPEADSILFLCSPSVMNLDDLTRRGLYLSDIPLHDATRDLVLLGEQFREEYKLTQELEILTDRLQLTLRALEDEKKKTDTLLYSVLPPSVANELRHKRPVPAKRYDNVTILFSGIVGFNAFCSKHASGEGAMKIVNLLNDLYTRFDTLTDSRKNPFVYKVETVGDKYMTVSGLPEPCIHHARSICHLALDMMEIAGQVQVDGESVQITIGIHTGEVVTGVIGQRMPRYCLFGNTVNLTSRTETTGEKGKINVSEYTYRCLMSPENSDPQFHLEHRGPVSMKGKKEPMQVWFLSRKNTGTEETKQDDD
Description: sGC cellular activator assay (cGMP, HTRF). Format: cell-based. Conditions: CHO cells stably expressing human sGC alpha 1/beta 1, preincubated with 40 microM ODQ; cGMP readout; assay run with and without 50% human serum, Table 2 does not say which. Here is the method: The sGC cellular activator assay is performed in the presence and absence of 50% human serum (HS) using Chinese hamster ovary cells that have been stably transfected to express the human soluble guanylate cyclase alpha 1 and beta 1 subunits (sGC). Cells are preincubated with 40 microM 1H-[1,2,4]oxadiazolo[4,3-a]quinoxalin-1-one (ODQ), an sGC inhibitor, for one h in buffer containing 0.1% bovine serum albumin and 3-isobutyl-1-methylxanthine (IBMX). Concentration response curves are prepared for test compounds in DMSO. An intermediate dilution of the compounds is performed in either buffer containing IBMX or type AB HS containing IBMX. Diluted compounds are added to cells and they are incubated at room temperature for thirty min. cGMP is measured using a CisBio homogeneous time resolved fluorescence kit and the EC50 is calculated for each compound.
Representative compounds of the present invention were tested for activity the above assay. Preferred compounds have an EC50 of <1,000 nM in the above assay and more preferred compounds have an EC50<200 nM.
In general terms: In TR-FRET formats the signal depends on donor and acceptor labels being close together.

Data set [2] can be described thus: human liver microsome (HLM) metabolic stability assay. Format: in vitro ADME. Conditions: human liver microsomes; % hepatic blood flow calculated from t1/2. Here is the method: The 5 time point, high-throughput human liver microsome (HLM) metabolic stability assay is designed to determine in vitro compound metabolism. Compounds are incubated with HLMs at a concentration of 1 uM, at 37° C., for a total of 60 min. The percent of compound remaining at 5, 15, 30, and 60 min is used to calculate the t½ (min), CLint (mL/min/kg), CLh (mL/min/kg), and % Qh. The assay is based on a 96-well format and can accommodate up to 92 compounds per plate (n=1).
Using the 96-well multi-channel head, the Biomek FX, equipped with a Peltier heating block/shaker, is programmed to accomplish the following steps: • 1. Pipette 175 uL of 1.15 mg/mL microsomes into each of the 96 conical inserts (Analytical Sales and Products, catalog number 96PL05) that fit into the plate of the Peltier heating block/shaker (the incubation plate) • 2. Add 5 uL of compounds from the assay plate to the microsomes and shake the mixture at 600 rpm at 42.1° C. for 10 min (a setting of 42.1° C. on the Peltier is required for the samples to incubate at 37° C.) • 3. After 10 min, prompt the user to add the NADPH plate to the deck and add 20 uL from the NADPH plate to the incubation plate to start the reaction • 4. Add 215 uL of 100%, cold acetonitrile containing an internal standard(s) to a 0 minute, 5 minute, 15 minute, 30 minute, and 60 minute “quench” plate • 5. At 0 min, 5 min, 15 min, 30 min, and 60 min into the incubation, aspirate 12 uL from the incubation mixture and add it to the quench solution to stop the reaction • 6. Add 185 uL HPLC grade water to each well of the 0, 5, 15, 30 and 60 minute quench plates to dilute compounds to the appropriate concentration for the mass spectrometer
After all time points are collected, the quench plates are sealed with 96-well pierceable plate mats or heat sealing foil and centrifuged at 3000 rpm for 15 min to pellet the microsomes.
The plates are analyzed using LC/MS/MS with electron spray ionization (ESI) and the previously determined MRM transitions. The LC method includes the following parameters:
Using an Excel template in Activitybase, the peak areas corresponding to 5, 15, 30 and 60 min are compared to the peak area at 0 min to calculate the percent of remaining compound using the following equation: Percent compound remaining=(AUC at Time t min/AUC at Time 0 min)×100 where t=0, 5, 15, 30 or 60 min.
Time (min) is plotted against the natural logarithm (Ln) of the percent compound remaining to determine the slope. The slope is used to calculate t½ (min) using the equation, t½=0.693/slope.
Preferred compounds have % Qh values of less than 24.

The nature of data set [3]: Assessment of solubility (McIlvaine buffers, 24 h shake, UPLC-UV). To be noted: kinetic from dmso stock. Format: physicochemical. Here is the method: Solubility is measured by the following method.
100 uL, 10 mM DMSO stock solution of each compound is prepared in a 96 well plate format. The experiment is done in single determination at 3 pH values (2.2, 4.5 and 6.8). For each pH and one reference, 40 uL of each compound is needed.
McIlvaine pH 2.2: To 2.076 g citric acid monohydrate and 0.043 g Na2HPO4×2H2O add 100 ml deionized water
McIlvaine pH 4.5: To 1.166 g citric acid monohydrate and 1.585 g Na2HPO4×2H2O add 100 ml deionized water
McIlvaine pH 6.8: To 0.476 g citric acid monohydrate and 2.753 g Na2HPO4×2H2O add 100 ml deionized water
With a suitable liquid handling device (Multipette® or a liquid handler) 390 uL of each buffer solution and 10 uL of compound is added to each well of a 96 deep well plate. The plates are covered firmly and shaken for 24 h on an over head shaker (at 54 RPM) at room temperature. The DMSO content in the final buffer is 2.5% v/v.
After 24 h the plates are centrifuged to remove droplets on the lid before opening (for ˜5 min at 2500 RPM).
The filtration is done under vacuum with Millipore 96 well filter plate. Filtrate is collected in a deep well plate and transferred to a suitable plate for UPLC analysis.
The reference plate is prepared by adding 10 uL of compound to 390 uL of 50:50 acetonitrile/water in a 96 deep well plate and transferred to a suitable plate for UPLC analysis. Wells are checked visually for precipitation, any presence noted under comments in reported results.
The samples are measured with UPLC-UV using the chromatographic method described below.
Waters Empower®2 software is used for generating Sample Sets (according to the plate layout), Sample Set Methods and Instrument Methods.
One Sample Set comprises the methods for three 96 well plates (one reference plate and two sample plates, and includes one Sample Set Method and one Instrument Method).
3. Data Processing and Analysis
The UV chromatograms collected at 254 nm are integrated and processed.
It is assumed that the compound is completely dissolved in the reference solution (50:50 acetonitrile/water)

In data set [1], `Cc1cccc(-c2cccc(-n3ncc(C(=O)O)c3OC(C)C)n2)c1OCc1ccc2c(c1C)CCN([C@@H]1CCCOC1)C2` [Compound 116] came in with an EC50 of 0.028 µM. Besides, the “HLM (% Qh)” value in data set [2] is <24 % Qh.
Taken in the same sequence, the figures for `CCOc1c(C(=O)O)cnn1-c1cccc(-c2cccc(C)c2OCc2ccc3c(c2C)CCN(C(CO)CO)C3)n1` [Compound 156] were 0.72 µM and <24 % Qh.
On to `COc1c(C(=O)O)cnn1-c1cccc(-c2cccc(C)c2OCc2ccc3c(c2)CN(C2CCOCC2)C3)n1` [Compound 59], for which the EC50 in data set [1] was 0.031 µM. Further, the “HLM (% Qh)” value in data set [2] is recorded as <24 % Qh.
Taken in the same sequence, the figures for `COc1c(C(=O)O)cnn1-c1cccc(-c2cccc(C)c2OCc2ccc3c(c2)CCN(C[C@H]2CCOC2)C3)n1` [Compound 192] were 0.01 µM and <24 % Qh.
As for `CCOc1c(C(=O)O)cnn1-c1cccc(-c2cccc(C)c2OCc2ccc3c(c2)CCNC3)n1` [Compound 60], the solubility at 24 h in data set [3] (pH 2.2, aqueous buffer) turned out to be 117 µg/mL (≈ 241 µM); in data set [3] (pH 4.5, aqueous buffer) it was 96 µg/mL (≈ 198 µM); in data set [3] (pH 6.8, aqueous buffer) it was 100 µg/mL (≈ 206 µM). For the same compound, the “HLM (% Qh)” value in data set [2] is listed as <24 % Qh.
As to `COc1c(C(=O)O)cnn1-c1cccc(-c2cccc(C)c2OCc2cc(C)c3c(c2)CN(C2COC2)C3)n1` [Compound 258], the response in data set [1] was half-maximal at 0.015 µM (EC50). Moreover, the “HLM (% Qh)” value in data set [2] was <24 % Qh.
The compound `COc1c(C(=O)O)cnn1-c1cccc(-c2cccc(C)c2OCc2ccc3c(c2C)CN(C2COC2)C3)n1` [Compound 257] came in with an EC50 in data set [1] of 0.014 µM. In data set [2], the “HLM (% Qh)” value is listed as <24 % Qh.
Taken in the same sequence, the figures for `COc1c(C(=O)O)cnn1-c1cccc(-c2cccc(C)c2OCc2cc(C)c3c(c2C)CN(S(=O)(=O)c2ccc(C)cc2)C3)n1` [Compound 138] were 0.054 µM and 68 % Qh.
The matching figures for `CCOc1c(C(=O)O)cnn1-c1cccc(-c2cccc(C)c2OCc2ccc3c(c2)CN(C2CCOCC2)C3)n1` [Compound 216]: 0.11 µM and <24 % Qh.
The compound `COc1c(C(=O)O)cnn1-c1cccc(-c2cccc(C)c2OCc2ccc3c(c2C)CN(C2CCOCC2)C3)n1` [Compound 256] gave an EC50 in data set [1] of 0.014 µM. The “HLM (% Qh)” value in data set [2] is <24 % Qh.
With `COc1c(C(=O)O)cnn1-c1cccc(-c2cccc(C)c2OCc2cc(C)c3c(c2C)CN(CC2COCCO2)C3)n1` (centres unmarked) [Compound 246], in data set [1], it took 0.0065 µM to reach a half-maximal effect (EC50). The “HLM (% Qh)” value in data set [2] is <24 % Qh.
On to `COc1c(C(=O)O)cnn1-c1cccc(-c2cccc(C)c2OCc2cc(C)c3c(c2)CN(C2CCOCC2)C3)n1` [Compound 255], for which the midpoint of the response in data set [1], the EC50, lay at 0.0095 µM. Also, in data set [2], the “HLM (% Qh)” value was <24 % Qh.
